Results from patent publication US5306712A, “Fungicidal silicon-containing compounds and their agrochemical and medicinal uses” (Sanyo Company, Limited, priority 1991, dated 1994).
Values after ≈ are worked out from the molar mass of the structure shown. Where two headings read alike, the source gives them in different places.

How the values were obtained:
Candida Albicans Sc. = test: Antifungal Test (MIC, Sabouraud's agar); assay type: cell-based; details: 48 h, C. albica, 27° C., 2 days
Protocol: (§1) (i) Preparation of the test solution: The sample to be tested was examined to determine a suitable solvent from those listed below and the method of dissolution, and then the sample was weighed (about 10 mg), dissolved in the selected solvent and diluted with sterilized distilled water to a concentration of 500 μg/ml. Samples of the resulting solution were then subjected to sequential dilution to half the previous concentration to prepare I2 samples in which the concentration of active compound is progressively halved.
(§2) (ii) Test procedure for antifungal activity: Using Nunklon (Registered trademark) 24.hole plates (manufactured by Nunk K. K.), 0.1 ml each of the diluted solutions described above was poured into a hole, 0.9 ml of Sabouraud's agar medium was added to each hole, giving a total of 1 ml in each hole, and mixed to prepare the plate medium.
1 Candida Albicans Sc. (C. albica)
(§3) These test strains were inoculated by means of a slant on Sabouraud's agar medium, cultured at 27° C. for 2 days for the yeast strains or for 7 to 14 days for the mold strains, and, kept intact, preserved at 5° C. (subcultured every 1 month). On the day of the test, in the case of the yeast medium, physiological saline to which had previously been added Tween 80 in an amount of 0.1% (w/v) was added to each medium to prepare 10^6 cells/ml suspensions; and, in the case of the mold medium, 4 ml each of the solution above was added to the surface of the agar slant, the surface was rubbed slightly with a stirrer or a platinum loop to suspend the spores, and then, by filtration through a funnel on which 2 sterilized gauzes were placed one upon another, 10^6 cells/ml suspensions were prepared. Using an Eppendorf pipette, 0.1 ml each of these suspension preparations was inoculated and cultivated. The culture was conducted at 27° C. for 2 days for the three strains of yeast, for 5 days for molds 4 , 5 and 6, and for 7 days for molds 7 and 8 to determine minimal inhibitory concentrations of the test samples.

[1] = test system: Fusarium moliniforme (Fungus C); test: Antifungal Activity (paper disc on agar); details: 30 μl of 300 ppm acetone solution, 25° C., 5 days
Protocol: (§4) A fungal disc of about 4 mm diameter was inoculated on an agar medium (2% by weight malt extract, 1% glucose, 0.3% peptone and 2% agar) in a petri dish of diameter 9 cm, by placing the disc on the center of the medium. Paper disc specimens were prepared by impregnating 30 μl of an acetone solution containing 300 ppm of the test compound into the disc (diameter 8 mm, thickness 0.7 mm) and then subjecting it to dry sterilization. The disc specimens were placed in a circle at about 1 cm distance from the fringe of the grown fungus, three days after the inoculation. The specimens were then maintained at 25° C. for 5 days, after which the antifungal activity was determined by visual observation of infection of the specimens by the fungus. The fungi tested were:
Fusarium moliniforme (Fungus C).
The antifungal activity is indicated by the following ratings:

[2] = test system: Cryptococcus neoformans 58063; test: Antifungal Test (MIC, Sabouraud's agar); assay type: cell-based; details: Cryptococcus neoformans, 58063, 48 h; C. neofor; 27° C., 2 days
Protocol: as §1, §2
3 Cryptococcus neoformans 58063 (C. neofor)
as §3

Mucor mucedo = test: Antifungal Test (MIC, Sabouraud's agar); assay type: cell-based; details: 120 h
Microsporum gypseum = test: Antifungal Test (MIC, Sabouraud's agar); assay type: cell-based; details: Nannizzia gypsea, 120 h
Protocol: as §1, §2
6 Microsporum gypseum (M. gypseu)
as §3

[3] = test system: Gliocladium virens (Fungus B); test: Antifungal Activity (paper disc on agar); details: 30 μl of 300 ppm acetone solution, 25° C., 5 days
Protocol: as §4
Gliocladium virens (Fungus B), and

Candida albicans 427 = test: Antifungal Test (MIC, Sabouraud's agar); assay type: cell-based
[4] = test system: Aspergillus niger (Fungus A); test: Antifungal Activity (paper disc on agar); details: 30 μl of 300 ppm acetone solution, 25° C., 5 days
Protocol: as §4
Aspergillus niger (Fungus A),

[5] = test system: Trichophyton mentagrophytes Sc.; test: Antifungal Test (MIC, Sabouraud's agar); assay type: cell-based; details: 168 h, T. mentag, 27° C., 7 days
Protocol: as §1, §2
7 Trichophyton mentagrophytes Sc. (T. mentag)
as §3

Trichophyton rubrum Sc. = test: Antifungal Test (MIC, Sabouraud's agar); assay type: cell-based; details: 168 h
[6] = test system: Tyromyces palustris (Fungus E); test: Wood-preservative Activity (Antidecay); details: paper disc, 30 μl of 300 ppm acetone solution, 25° C., 5 days
Protocol: (§5) A fungal disc of about 4 mm diameter was inoculated on an agar medium (2% by weight malt extract, 1% glucose, 0.3% peptone and 2% agar) in a petri dish of diameter 9 cm, by placing the disc on the center of the medium. Paper disc specimens were prepared by impregnating 30 μl of an acetone solution containing 300 ppm of the test compound into the disc (diameter 8 mm, thickness 0.7 mm) and then subjecting it to dry sterilization. The disc specimens were placed in a circle at about 1 cm distance from the fringe of the grown fungus, three days after the inoculation. The specimens were then maintained at 25° C. for 5 days, after which the antifungal activity was determined by visual observation of infection of the specimens by the fungus.
(§6) The procedure described in Experiment 7 was repeated, except that the fungi tested were Coriolus versicolor (Fungus D) and Tyromyces palustris (Fungus E), which are prescribed in JIS A-9201.

[7] = test system: Coriolus versicolor (Fungus D); test: Wood-preservative Activity (Antidecay); details: paper disc, 30 μl of 300 ppm acetone solution, 25° C., 5 days
Protocol: as §5, §6

Aspergillus fumigatus = test: Antifungal Test (MIC, Sabouraud's agar); assay type: cell-based; details: 120 h, A. fumiga, 27° C., 5 days
Protocol: as §1, §2
5 Aspergillus fumigatus (A. fumiga)
as §3

SMILES | MIC (Candida Albicans Sc.) [µg/mL] | antifungal activity, Fungus C [1] | MIC [2] [µg/mL] | MIC (Mucor mucedo) [µg/mL] | MIC (Microsporum gypseum) [µg/mL] | antifungal activity, Fungus B [3] | MIC (Candida albicans 427; Candida albicans, 427, 48 h) [µg/mL] | antifungal activity, Fungus A [4] | MIC [5] [µg/mL] | MIC (Trichophyton rubrum Sc.) [µg/mL] | wood-preservative (antidecay) activity, Fungus E [6] | wood-preservative (antidecay) activity, Fungus D [7] | MIC (Aspergillus fumigatus) [µg/mL] | MIC (Mucor mucedo; M. mucedo, 27° C., 5 days, read-out: MIC) [µg/mL] | MIC (Candida albicans 427; Candida albicans, 48 h, C. alb 427, 27° C., 2 days, read-out: MIC) [µg/mL] | MIC (Trichophyton rubrum Sc.; T. rubrum, 27° C., 7 days, read-out: MIC) [µg/mL]
C[Si](C)(C)CC(O)(Cn1cncn1)c1ccc(Cl)cc1 (centres unmarked) [Compound 1-2, 2-(4-Chlorophenyl)-1-(1H-1,2,4-triazol-1-yl)-3-trimethylsilyl-2-propanol] | > 50 | + | 12.5 (≈ 40.3 µM) | > 50 | > 50 | + | > 50 | + | 3.1 (≈ 10 µM) | 3.1 (≈ 10 µM) | + | + | > 50 |  |  | 
C[Si](C)(C)CC(O)(Cn1cncn1)c1ccc(F)cc1 (centres unmarked) [Compound 1-3, 2-(4-Fluorophenyl)-1-(1H-1,2,4-triazol-1-yl)-3-trimethylsilyl-2-propanol] | > 50 |  | > 50 | > 50 | > 50 |  | > 50 | + | 25 (≈ 85.2 µM) | 25 (≈ 85.2 µM) |  |  | > 50 |  |  | 
C[Si](C)(C)CC(O)(Cn1cncn1)c1ccc(F)cc1F (centres unmarked) [Compound 1-12, 2-(2,4-Difluorophenyl)-1-(1H-1,2,4-triazole-1-yl)-3-trimethylsilyl-2-propanol] | > 50 | + | 6.2 (≈ 19.9 µM) |  | 1.5 (≈ 4.82 µM) | + |  | - | 0.8 (≈ 2.57 µM) |  | + | + | 12.5 (≈ 40.1 µM) | 12.5 (≈ 40.1 µM) | > 50 | 0.8 (≈ 2.57 µM)
